Values quoted from earlier work, collected in US20250017941A1, “METHODS OF TREATING NON-HODGKIN LYMPHOMA USING 2-(2,6-DIOXOPIPERIDIN-3-YL)-4-((2-FLUORO-4-((3-MORPHOLINOAZETIDIN-1-YL)METHYL)BENZYL)AMINO)ISOINDOLINE-1,3-DIONE” (Celgene Corporation, priority 2021, published 2025).
Where two headings read alike, the source gives them in different places.

Experiments:
[1] = tested on: patients with FL who had received 2 or more prior systemic therapies
[2] = tested on: adult patients with CD20-positive indolent non-Hodgkin lymphoma refractory to rituximab
[3] = 53 patients with EZH2 wild-type status, 800 mg orally twice daily
[4] = tafasitamab in combination with lenalidomide, R/R DLBCL
[5] = tafasitamab in combination with lenalidomide, listed with the G3/4 events

## CCN(c1cc(-c2ccc(CN3CCOCC3)cc2)cc(C(=O)NCc2c(C)cc(C)[nH]c2=O)c1C)C1CCOCC1 [Tazemetostat, N-[(1,2-dihydro-4,6-dimethyl-2-oxo-3-pyridinyl)methyl]-5-[ethyl (tetrahydro-2H-pyran-4-yl)amino]-4-methyl-4′-(4-morpholinylmethyl)-[1,1′-biphenyl]-3-carboxamide]
[1]; 800 mg orally twice daily
  Grade 3/4 anemia, patients: 8%
  Grade 3/4 neutropenia, patients: 7%
  Grade 3/4 thrombocytopenia, patients: 7%
  Serious AEs, patients: 30%
[1]; 42 patients with EZH2 mutated status, 800 mg orally twice daily
  CR rate: 12%
[1]; 42 patients with EZH2 mutated status, tazemetostat 800 mg orally twice daily
  ORR: 69%
[1]; [3]
  CR rate: 4%
  ORR: 34%
[1]; EZH2 wild-type cohort, 800 mg orally twice daily
  mDOR: 13 months
[1]; fatigue, upper respiratory tract infection, nausea, abdominal pain and musculoskeletal pain
  most common AEs of all grades, frequency: ≥ 20%
[1]; general physical health deterioration, abdominal pain, pneumonia, sepsis and anemia
  most common serious AEs, patients: at least 2%
[1]; patients with EZH2 mutated status, 800 mg orally twice daily
  mDOR: 10.9 months

## Cn1c(CCCC(=O)O)nc2cc(N(CCCl)CCCl)ccc21 [bendamustine]
[2]; median follow-up 21.9 months (obinutuzumab plus bendamustine) and 20.3 months (bendamustine monotherapy)
  PFS (primary endpoint): 14.9 months
[2]; per arm
  Febrile neutropenia, occurrence: uncommon
  Grade 3/4 anemia, patients: 8%
  Grade 3/4 neutropenia, patients: 26%
  Grade 3/4 thrombocytopenia, patients: 15%
[2]; per treatment group
  Serious AEs, patients: 33%
  deaths due to adverse events, patients: 6%

## tafasitamab: anti-CD19 monoclonal antibody; results are for the combination with lenalidomide
Patients with R/R DLBCL; tafasitamab 12 mg/kg intravenously in combination with lenalidomide 25 mg orally, R/R DLBCL, 81 participants
  objective response rate (ORR): 60%
Patients with R/R DLBCL; tafasitamab 12 mg/kg intravenously in combination with lenalidomide, R/R DLBCL, 81 participants
  complete response (CR) rate: 34%
Patients with R/R DLBCL; [4]
  G3/4 febrile neutropenia, patients: 12%
  G3/4 neutropenia, patients: 48%
  Serious AEs, patients: 52%
  Serious AEs: febrile neutropenia, patients: 6%
  Serious AEs: pneumonia, patients: 6%
  median duration of response: 21.7 months
Patients with R/R DLBCL; [5]
  anemia, patients: 7%
  thrombocytopenia, patients: 17%
Patients with R/R DLBCL; tafasitamab in combination with lenalidomide, neutropenia, fatigue, anemia, diarrhea, thrombocytopenia, cough, pyrexia, peripheral edema, rash, decreased appetite
  most common adverse events (AEs) of all grades, frequency: ≥ 20%
